Read-outs that look alike come from different tables or passages of the source.

Test [1] concerns binding sites of (^3 H) diazepam in the kidney. Particulars: cited from earlier work; for classification by decreasing affinity, "peripheral" type: rank order; for activity at the binding sites of (^3 H) diazepam in the kidney (peripheral level): in words.
The target in test [2] is T1, "peripheral" receptor sites of benzodiazepines (Rattus norvegicus, UniProt P16257).
T1 construct: on kidney membranes from the rat; from tissue; host or cells: rat kidney membranes
Description: Affinity for "peripheral" receptor sites of benzodiazepines: displacement of tritiated diazepam on kidney membranes from the rat. In kind it is binding. The text has this: The products have been studied according to the method of C. BRAESTRUP et al, Proc. Natl. Acad. Sci. USA, 1977, 74, 3805, on kidney membranes from the rat.

In test [3] the test system is binding sites of (^3 H) diazepam in the brain. Particulars: cited from earlier work.

With `CN1C(=O)CN=C(c2ccccc2)c2cc(Cl)ccc21` [diazepam], the “classification by decreasing affinity, "peripheral" type” value in test [1] is reported as “Ro-5-4864>diazepam>clonazepam”.

Regarding `CCN(CC)C(=O)c1cc2ccccc2c(-c2ccc(C)cc2)n1` [Example 12, N,N-diethyl 1-(4-methylphenyl) isoquinoline 3-carboxamide], the Ki in test [2] (read-out: Ki) is 99 nM.

As to `O=C1CN=C(c2ccccc2Cl)c2cc([N+](=O)[O-])ccc2N1` [clonazepam], in test [1], the “activity at the binding sites of (^3 H) diazepam in the kidney (peripheral level)” value is “practically inactive” and the “classification by decreasing affinity, "peripheral" type” value was “Ro-5-4864>diazepam>clonazepam”.

Turning to `CCN(CC)C(=O)c1cc(-c2cccc([N+](=O)[O-])c2)c2ccccc2n1` [Example 38, N,N-diethyl 4-(3-nitrophenyl) quinoline 2-carboxamide], the Ki in test [2] (read-out: Ki) worked out at 30 nM.

As to `CCN(CC)C(=O)c1cc2ccsc2c(-c2ccccc2Cl)n1` [Example 32, N,N-diethyl 7-(2-chlorophenyl) thieno[2,3-c]pyridine 5-carboxamide], the Ki in test [2] (read-out: Ki) amounted to 6.3 nM.

Regarding `O=C(c1cc2ccccc2c(-c2ccccc2)n1)N1CCCCC1` [Example 7, 1-[3-(1-phenylisoquinolyl)carbonyl]piperidine], the inhibitory constant (Ki) in test [2] (read-out: Ki) came to 210 nM.

In test [2], `CCC(C)N(C)C(=O)c1cc2ccccc2c(-c2ccccc2)n1` (stereo not shown) [Example 10, N-methyl N(1-methylpropyl) 1-phenyl isoquinoline 3-carboxamide] gave an inhibitory constant (Ki) of 2 nM.

Take `CCN(CC)C(=O)c1cc2ccccc2c(-c2ccccc2)n1` [Example 5, N,N-diethyl 1-phenyl isoquinoline 3-carboxamide]: the inhibition constant (Ki) in test [2] (read-out: Ki) is 150 nM.

With `CCC(C)N(C)C(=O)c1cc2sccc2c(-c2ccccc2Cl)n1` (stereo not shown) [Example 47, N-methyl N-(1-methylpropyl) 4-(2-chlorophenyl) thieno[3,2-c]pyridine 6-carboxamide], in test [2] (read-out: Ki), the inhibitory constant (Ki) amounted to 1 nM.

For the molecule `CCC(C)N(C)C(=O)c1cc(-c2ccccc2F)c2ccccc2n1` (stereo not shown) [Example 35, N-methyl N(1-methylpropyl) 4-(2-fluorophenyl) quinoline 2-carboxamide], the Ki in test [2] (read-out: Ki) came out at 2 nM.

Turning to `CCCCN(CCCC)C(=O)c1cc2ccccc2c(-c2ccccc2)n1` [Example 39, N,N-dibutyl 1-phenyl isoquinoline 3-carboxamide], the Ki in test [2] (read-out: Ki) amounted to 21 nM.

Consider `CCN(CC)C(=O)c1cc2sccc2c(-c2ccccc2Cl)n1` [Example 31, N,N-diethyl 4-(2-chlorophenyl) thieno[3,2-c]pyridine 6-carboxamide], for which the Ki in test [2] (read-out: Ki) is 9 nM.

For `CCCN(CCC)C(=O)c1cc2ccccc2c(-c2ccccc2Cl)n1` [Example 14, N,N-dipropyl 1-(2-chlorophenyl) isoquinoline 3-carboxamide], the inhibitory constant (Ki) in test [2] (read-out: Ki) stood at 18 nM.

As for `CN(Cc1ccccc1)C(=O)c1cc2ccccc2c(-c2ccccc2Cl)n1` [Example 17, N-methyl N-phenylmethyl 1-(2-chlorophenyl) isoquinoline 3-carboxamide], in test [2] (read-out: Ki), the inhibitory constant (Ki) stood at 117 nM.

For `CCC(C)N(C)C(=O)c1cc2ccsc2c(-c2ccccc2Cl)n1` (stereo not shown) [Example 46, N-methyl N-(1-methylpropyl) 7-(2-chlorophenyl) thieno[2,3-c]pyridine 5-carboxamide], the Ki in test [2] (read-out: Ki) was 7 nM.

`CCN(CC)C(=O)c1cc2ccccc2c(-c2cccc(C(F)(F)F)c2)n1` [Example 43, N,N-diethyl 1-(3-trifluoromethylphenyl) isoquinoline 3-carboxamide]: in test [2] (read-out: Ki), the inhibitory constant (Ki) came out at 13 nM.

In the case of `CCC(C)N(C)C(=O)c1cc2ccccc2c(-c2ccccc2F)n1` (stereo not shown) [Example 16, N-methyl N-(1-methylpropyl) 1-(2-fluorophenyl) isoquinoline 3-carboxamide], in test [2] (read-out: Ki), the inhibition constant Ki came out at 0.9 nM.

As for `CC(C)N(C(=O)c1cc2ccccc2c(-c2ccccc2Cl)n1)C(C)C` [Example 24, N,N-di(1-methylethyl) 1-(2-chlorophenyl) isoquinoline 3-carboxamide], the inhibition constant (Ki) in test [2] (read-out: Ki) is 20 nM.

Take `CCN(CC)C(=O)c1cc(-c2ccccc2)c2ccccc2c1` [Example 1, N,N-diethyl 4-phenyl naphthalene 2-carboxamide]: in test [2] (read-out: Ki), the inhibitory constant (Ki) worked out at 5.4 nM.

In the case of `CCN(CC)C(=O)c1cc(-c2ccccc2)c2ccccc2n1` [Example 3, N,N-diethyl 4-phenyl quinoline 2-carboxamide], the inhibition constant (Ki) in test [2] (read-out: Ki) was 27 nM.

Consider `CCN(CC)C(=O)c1nc(-c2ccccc2)c2ccccc2n1` [Example 33, N,N-diethyl 4-phenyl quinazoline 2-carboxamide], for which, in test [2] (read-out: Ki), the inhibition constant Ki came to 27 nM.

As to `O=C(c1cc2ccccc2c(-c2ccccc2Cl)n1)N1CCCCC1` [Example 13, 1-[[1-(2-chlorophenyl) 3-isoquinolyl]carbonyl]piperidine], in test [2] (read-out: Ki), the Ki was 72 nM.

Turning to `CC[C@@H]1CCCCN1C(=O)c1cc2ccccc2c(-c2ccccc2)n1` [Example 41, 2(R)-ethyl 1-[(1-phenyl 3-isoquinolyl)carbonyl]piperidine], the inhibition constant (Ki) in test [2] (read-out: Ki) was 22 nM.

As for `CCN(CC)C(=O)c1cc2ccccc2c(-c2ccccc2Cl)n1` [Example 6, N,N-diethyl 1-(2-chloro-phenyl) isoquinoline 3-carboxamide], in test [2] (read-out: Ki), the Ki was determined as 17 nM.

Consider `CC[C@H]1CCCCN1C(=O)c1cc2ccccc2c(-c2ccccc2)n1` [Example 42, 2(S)-ethyl 1-[(1-phenyl 3-isoquinolyl)carbonyl]piperidine], for which the inhibition constant (Ki) in test [2] (read-out: Ki) was 13 nM.

In the case of `CCN(CC)C(=O)c1cc2ccccc2c(-c2cccc(Cl)c2)n1` [Example 11, N,N-diethyl 1-(3-chlorophenyl) isoquinoline 3-carboxamide], the Ki in test [2] (read-out: Ki) was determined as 9 nM.

Consider `CCN(CC)C(=O)c1cc2ccccc2c(-c2cccc(F)c2)n1` [Example 15, N,N-diethyl 1-(3-fluorophenyl) isoquinoline 3-carboxamide], for which the Ki in test [2] (read-out: Ki) amounted to 20 nM.

On to `CCC1CCCCN1C(=O)c1cc2ccccc2c(-c2ccccc2)n1` (stereo not shown) [Example 40, 2-ethyl 1-[(1-phenyl 3-isoquinolyl)carbonyl]piperidine], for which the inhibitory constant (Ki) in test [2] (read-out: Ki) turned out to be 16 nM.

As for `C=CC(C)N(C)C(=O)c1cc2ccccc2c(-c2ccccc2Cl)n1` (stereo not shown) [Example 25, N-methyl N(1-methylpropene-2-yl) 1-(2-chlorophenyl) isoquinoline 3-carboxamide], the Ki in test [2] (read-out: Ki) amounted to 3 nM.

Turning to `CN1C(=O)CN=C(c2ccc(Cl)cc2)c2cc(Cl)ccc21` [Ro-5-4864], in test [1], the “activity at the binding sites of (^3 H) diazepam in the kidney (peripheral level)” value is given as “very active at the peripheral level” and the “classification by decreasing affinity, "peripheral" type” value is listed as “Ro-5-4864>diazepam>clonazepam”. For the same molecule, in test [3] (brain, in words), the “affinity for the binding sites of (^3 H) diazepam in the brain (central level)” value was “inactive at the central level”. Further, the “classification by decreasing affinity, "cerebral" type” value in test [3] (rank order) is given as “clonazepan>diazepam>Ro-5-4864”.

The record behind these values is patent US4499094A, “Derivatives of arene and hetero-arene carboxamides and their use as medicaments” (Pharmuka Laboratoires, priority 1982, dated 1985).
